≈ marks a conversion by molar mass, not a printed value. Like-named read-outs stand apart in the source and are kept apart here.
What was measured:
Assay type in all cases: cell-based
[1] = tested on: Proteus mirabilis (IFO 3849); assay: MIC, agar dilution, Proteus mirabilis; details: read-out: Minimum Inhibitory Concentration (MIC)
Description: (§1) The compounds of this invention were tested for antibacterial activity according to the following procedure. Nutrient broth and nutrient agar were prepared according to the conventional procedure. […] was used as a vehicle. The stock solution was prepared at 100 μg/ml of the test material in the vehicle. Two-fold dilutions were made with the vehicle and then the diluted stock solution was added to a petri dish and solidified by chilling. Test organisms were grown in the nutrient broth for 20 hours at 37° C. The hardened surface was inoculated with a loopful of the test organism solution containing 1×10^6 cells per milliliter and incubated for 20 hours at 37° C. At the end of this period, growth of the organism was observed. […] The following Table 1 summarizes the activity of representative compounds as active antibacterial agents, and compares them with the prior art compounds and the reference drug Sulbenicillin.

[2] = tested on: Proteus vulgaris (IFO 3045); assay: MIC, agar dilution, Proteus vulgaris; details: read-out: Minimum Inhibitory Concentration (MIC)
Description: as §1

Staph. aureus (FDA 209P) = assay: MIC, agar dilution, Staph. aureus; details: Staphylococcus aureus, FDA209P, read-out: Minimum Inhibitory Concentration (MIC)
Description: as §1

[3] = tested on: Pseudomonas aeruginosa (ATCC 15692); assay: MIC, agar dilution, Pseudomonas aeruginosa ATCC 15692; details: read-out: Minimum Inhibitory Concentration (MIC)
Description: as §1

E. coli (NIHJ) = assay: MIC, agar dilution, E. coli; details: Escherichia coli, read-out: Minimum Inhibitory Concentration (MIC)
Description: as §1

[4] = tested on: Proteus morgani (IFO 3848); assay: MIC, agar dilution, Proteus morgani; details: Morganella morganii, read-out: Minimum Inhibitory Concentration (MIC)
Description: as §1

[5] = tested on: Klebsiella pneumoniae (ATCC 25955); assay: MIC, agar dilution, Klebsiella pneumoniae; details: read-out: Minimum Inhibitory Concentration (MIC)
Description: as §1

[6] = tested on: Pseudomonas aeruginosa M-11; assay: MIC, agar dilution, Pseudomonas aeruginosa M-11; details: 20 h, read-out: Minimum Inhibitory Concentration (MIC)
Description: as §1
^*1 streptomycin resistant strain derived from Pseudomonas aeruginosa

[7] = tested on: Pseudomonas aeruginosa M-16; assay: MIC, agar dilution, Pseudomonas aeruginosa M-16; details: M16, 20 h, read-out: Minimum Inhibitory Concentration (MIC)
Description: as §1
^*3 streptomycin, chloramphenicol and mercury resistant strain derive

[8] = tested on: Pseudomonas aeruginosa (ATCC 15691); assay: MIC, agar dilution, Pseudomonas aeruginosa ATCC 15691; details: read-out: Minimum Inhibitory Concentration (MIC)
Description: as §1

[9] = tested on: Pseudomonas aeruginosa M-12; assay: MIC, agar dilution, Pseudomonas aeruginosa M-12; details: ATCC15692, 20 h, read-out: Minimum Inhibitory Concentration (MIC)
Description: as §1
^*2 chloramphenicol resistant strain derived from Pseudomonas

[10] = Proteus mirabilis, IFO3849, 20 h
[11] = Proteus vulgaris, IFO3045, 20 h

Row | Compound | MIC [1, 10] | MIC [2, 11] | MIC (Staph. aureus (FDA 209P); 20 h) | MIC ([3]; ATCC15692, P. aeruginosa ATCC 15692, nutrient agar, 20 hours at 37° C.) | MIC (E. coli (NIHJ); 20 h) | MIC ([4]; IFO3848, 20 h) | MIC ([3]; ATCC15692, 20 h) | MIC ([5]; ATCC25955, Klebsiella pneumoniae ATCC 25955, nutrient agar, 20 hours at 37° C.) | MIC [6] | MIC ([1]; IFO3849, Proteus mirabilis IFO 3849, nutrient agar, 20 hours at 37° C.) | MIC [7] | MIC ([8]; ATCC15691, P. aeruginosa ATCC 15691, nutrient agar, 20 hours at 37° C.) | MIC ([2]; IFO3045, Proteus vulgaris IFO 3045, nutrient agar, 20 hours at 37° C.) | MIC (Staph. aureus (FDA 209P); Staph. aureus FDA 209P, nutrient agar, 20 hours at 37° C.) | MIC [9] | MIC (E. coli (NIHJ); E. coli NIHJ, nutrient agar, 20 hours at 37° C.) | MIC ([4]; IFO3848, Proteus morgani IFO 3848, nutrient agar, 20 hours at 37° C.) | MIC ([5]; Klebsiella pneumoniae, ATCC25955, 20 h) | MIC ([8]; ATCC15691, 20 h)
1 | CC1(C)S[C@@H]2[C@H](NC(=O)[C@H](NC(=O)[C@@H]3CCCN3)c3ccc(O)cc3)C(=O)N2[C@H]1C(=O)O [Compound 4] | 9 µg/mL (≈ 19.5 µM) | 12.5 µg/mL (≈ 27 µM) | 1.25 µg/mL (≈ 2.7 µM) | 50 µg/mL (≈ 108 µM) | 25 µg/mL (≈ 54.1 µM) | 9 µg/mL (≈ 19.5 µM) | – | – | – | – | – | – | – | – | – | – | – | – | –
2 | CC1(C)S[C@@H]2[C@H](NC(=O)[C@H](NC(=O)[C@H]3CCCN3)c3ccc(O)cc3)C(=O)N2[C@H]1C(=O)O [Compound 3, 6-[D-2-(D-prolylamino)-2-(4-hydroxyphenyl)acetamido]penicillanic acid monohydrate] | 2.2 µg/mL | 6.2 µg/mL | 0.9 µg/mL | – | 6.2 µg/mL | 3.1 µg/mL | 6.2 µg/mL | – | – | – | – | – | – | – | – | – | – | – | –
3 | CC1(C)S[C@@H]2[C@H](NC(=O)C(c3ccccc3)S(=O)(=O)O)C(=O)N2[C@H]1C(=O)O (some centres unmarked) [sulpenicillin, reference compound] | – | – | – | – | – | – | – | > 100 µg/mL | 25 µg/mL (≈ 60.3 µM) | < 3.1 µg/mL | 25 µg/mL (≈ 60.3 µM) | 50 µg/mL (≈ 121 µM) | < 3.1 µg/mL | 3.25 µg/mL (≈ 7.84 µM) | 25 µg/mL (≈ 60.3 µM) | 1.25 µg/mL (≈ 3.02 µM) | < 3.1 µg/mL | – | –
4 | CC1(C)S[C@@H]2[C@H](NC(=O)[C@H](NC(=O)[C@H]3Cc4ccccc4CN3)c3ccccc3)C(=O)N2[C@H]1C(=O)O [Compound 15] | 25 µg/mL (≈ 49.2 µM) | 25 µg/mL (≈ 49.2 µM) | 0.3 µg/mL (≈ 0.59 µM) | – | 25 µg/mL (≈ 49.2 µM) | 25 µg/mL (≈ 49.2 µM) | – | – | 25 µg/mL (≈ 49.2 µM) | – | 25 µg/mL (≈ 49.2 µM) | – | – | – | 25 µg/mL (≈ 49.2 µM) | – | – | 25 µg/mL (≈ 49.2 µM) | 50 µg/mL (≈ 98.3 µM)

From US4220587A, “Amino acid derivatives of 6-(2-amino-2-arylacetamido)penicillanic acids” (Mitsubishi Chemical Industries, Limited, priority 1975, dated 1980)
